Laboratory results published in article PMC10792358 (Clinical Cancer Research, 2023).

Experiments:
Plasma pharmacokinetics = conditions: data not shown
[1] = system: HR+/HER2− breast cancer with PIK3CA mutations; conditions: patients with PIK3CA mutations, few treated with CDK4/6i; cited from earlier work

Q: Which “effect of molibresib on fulvestrant pharmacokinetics” value (Plasma pharmacokinetics; fulvestrant predose concentrations) does the source give for `C[C@]12CC[C@@H]3c4ccc(O)cc4C[C@@H](CCCCCCCCC[S+]([O-])CCCC(F)(F)C(F)(F)F)[C@H]3[C@@H]1CC[C@@H]2O` (stereo partly drawn) [fulvestrant] here?
A: lack of effect

Q: And the predose concentrations (Plasma pharmacokinetics; fulvestrant with molibresib, compared with ref 18)?
A: within the range anticipated

Q: What about the ORR [1] of the same compound?
A: 12.8%
